{"source": "patent US7101871B2", "about": "“Beta-amino heterocyclic dipeptidyl peptidase inhibitors for the treatment or prevention of diabetes” (Merck & Co., Inc., priority 2002, dated 2006)", "origin": "cited, not measured here", "key": {"[1]": {"system": "cardiac allograft", "details": "rats; doubled from day 7 to day 14"}, "[2]": {"system": "hematopoiesis", "details": "mouse, cyclophosphamide-induced neutropenia (WO 99/56753)"}, "[3]": {"system": "GRF degradation in plasma"}}}
{"smiles": "CC(C)N1CCC(c2ccccc2)(c2ccccc2)CC1", "note": "[Prodipine, Pro-Pro-diphenyl-phosphonate]", "values": [{"measurement": "cardiac allograft survival", "setting": "[1]", "value": 14, "unit": "day"}]}
{"smiles": "CC(C)[C@H](N)C(=O)N1CCC[C@H]1B(O)O", "note": "[Val-Boro-Pro]", "values": [{"measurement": "effect on hematopoiesis", "setting": "[2]", "value": "stimulated hematopoiesis"}]}
{"smiles": "CC[C@H](C)[C@H](N)C(=O)N1CCC[C@H]1C(=O)N[C@H](C(=O)O)[C@@H](C)CC", "note": "[diprotin A]", "values": [{"measurement": "effect on degradation of GRF to GRF[3-44] in plasma", "setting": "[3]", "value": "prevented"}]}
